Data from ChEMBL document CHEMBL1129789, “Dopamine D3 and D4 receptor antagonists: synthesis and structure--activity relationships of (S)-(+)-N-(1-Benzyl-3-pyrrolidinyl)-5-chloro-4- [(cyclopropylcarbonyl) amino]-2-methoxybenzamide (YM-43611) and related compounds” (J Med Chem, 1996).

What was measured:
[1] = system: Mus musculus; assay: Compound was tested for inhibition of Apomorphine induced climbing in Mice on subcutaneous administration; assay type: functional; details: sc
[2] = target: T1, D(4) dopamine receptor (Homo sapiens, UniProt P21917); assay: biochemical
T1 sequence (P21917 whole entry): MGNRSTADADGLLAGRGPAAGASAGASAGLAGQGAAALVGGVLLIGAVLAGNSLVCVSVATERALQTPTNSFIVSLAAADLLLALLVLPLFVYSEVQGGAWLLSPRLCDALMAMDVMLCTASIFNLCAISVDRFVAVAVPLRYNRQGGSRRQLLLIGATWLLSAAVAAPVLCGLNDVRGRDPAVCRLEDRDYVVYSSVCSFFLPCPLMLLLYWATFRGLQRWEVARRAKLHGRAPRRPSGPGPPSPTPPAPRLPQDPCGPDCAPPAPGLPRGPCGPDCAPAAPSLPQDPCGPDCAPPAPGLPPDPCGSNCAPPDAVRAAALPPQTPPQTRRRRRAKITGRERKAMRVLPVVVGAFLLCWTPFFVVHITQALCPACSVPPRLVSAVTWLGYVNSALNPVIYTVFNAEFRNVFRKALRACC

[3] = target: D(3) dopamine receptor (Rattus norvegicus, UniProt P19020); assay: biochemical
Description: Binding affinity to rat Dopamine receptor D3 expressed in CHO cells was determined using [125 I] iodosulpride as radioligand

[4] = system: Mus musculus; assay: Inhibition of Apomorphine induced climbing in mice administered sc; assay type: functional
[5] = organism: Mus musculus; assay: Compound was tested for inhibition of Apomorphine induced climbing in Mice; assay type: functional
[6] = target: Adrenergic receptor beta (Rattus norvegicus, UniProt P18090+P10608+P26255); assay: Compound was tested for the binding affinity against rat cortical Beta adrenergic receptor by Radio ligand [3H]dihydroalprenolol binding assay.; assay type: protein assay

Sequence of D(3) dopamine receptor (P19020 whole entry): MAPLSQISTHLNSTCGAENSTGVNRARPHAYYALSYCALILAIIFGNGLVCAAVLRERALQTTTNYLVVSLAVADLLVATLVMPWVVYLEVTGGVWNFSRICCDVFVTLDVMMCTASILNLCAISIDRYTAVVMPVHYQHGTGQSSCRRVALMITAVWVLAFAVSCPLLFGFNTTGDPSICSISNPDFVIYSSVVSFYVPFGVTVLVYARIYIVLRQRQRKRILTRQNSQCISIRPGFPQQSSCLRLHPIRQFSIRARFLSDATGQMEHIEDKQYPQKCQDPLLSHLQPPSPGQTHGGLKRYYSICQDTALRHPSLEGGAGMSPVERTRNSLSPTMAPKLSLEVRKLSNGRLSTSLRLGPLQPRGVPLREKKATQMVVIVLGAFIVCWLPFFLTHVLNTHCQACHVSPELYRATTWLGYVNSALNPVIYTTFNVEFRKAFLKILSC

SMILES	ED50 [1] [mg/kg]	Ki [2] [nM]	Ki [3] [nM]	ED50 [4] [mg/kg]	ED50 [5] [mg/kg]	Ki [6] [nM]
COc1cc(NC(=O)C2CCC2)c(Cl)cc1C(=O)N[C@H]1CCN(Cc2ccccc2)C1	0.14	5.2	36	–	–	–
COc1cc(NC(=O)C2CCC2)c(Cl)cc1C(=O)N[C@@H]1CCN(Cc2ccccc2)C1	–	7	100	–	–	–
COc1cc(NC(=O)C2CC2)c(Cl)cc1C(=O)N[C@@H]1CCN(Cc2ccccc2)C1	0.45	5.6	60	–	–	–
CNc1cc(OC)c(C(=O)N[C@H]2CCN(C3C4CCCC3CCC4)C2)cc1Cl (stereo partly drawn)	–	0.67	0.24	–	–	–
COc1cc(N)c(Cl)cc1C(=O)N[C@@H]1CCN(Cc2ccccc2)C1	–	–	1.9	–	–	–
COc1cc(N)c(Cl)cc1C(=O)N[C@H]1CCN(Cc2ccccc2)C1	–	–	0.58	0.071	–	–
COc1cc(NC(=O)C(F)(F)F)c(Cl)cc1C(=O)N[C@H]1CCN(Cc2ccccc2)C1	–	1.9	5.1	–	–	–
COc1cc(NC(=O)c2ccccc2)c(Cl)cc1C(=O)N[C@H]1CCN(Cc2ccccc2)C1	–	87	200	–	–	–
COc1cc(NC(=O)C2CC2)c(Cl)cc1C(=O)N[C@H]1CCN(CCc2ccccc2)C1	–	3.4	33	–	–	–
COc1cc(NC(=O)C2CCCC2)c(Cl)cc1C(=O)N[C@H]1CCN(Cc2ccccc2)C1	0.28	20	55	–	–	–
C=CC(=O)Nc1cc(OC)c(C(=O)N[C@H]2CCN(Cc3ccccc3)C2)cc1Cl	–	1.3	4.7	–	–	–
COc1cc(NC(=O)C2CC2)c(Cl)cc1C(=O)N[C@H]1CCN(C2CCCCCC2)C1	–	2.7	1.5	–	–	–
COc1cc(NC(=O)C2CC2)c(Cl)cc1C(=O)N[C@H]1CCN(C2C3CC4CC(C3)CC2C4)C1 (stereo partly drawn)	> 10	4.4	1.7	–	–	–
COc1cc(NC(=O)C(C)C)c(Cl)cc1C(=O)N[C@H]1CCN(Cc2ccccc2)C1	–	3	15	–	–	–
CCC(=O)Nc1cc(OC)c(C(=O)N[C@H]2CCN(Cc3ccccc3)C2)cc1Cl	0.31	1.5	5.9	–	–	–
COc1cc(NC(=O)C2CC2)c(Cl)cc1C(=O)N[C@H]1CCN(C2C3CCCC2CCC3)C1 (stereo partly drawn)	> 10	3.8	2.2	–	–	–
COc1cc(NC(=O)C2CCCC2)c(Cl)cc1C(=O)N[C@@H]1CCN(Cc2ccccc2)C1	–	18	150	–	–	–
COc1cc(NC(=O)C2CCCCC2)c(Cl)cc1C(=O)N[C@H]1CCN(Cc2ccccc2)C1	–	110	200	–	–	–
COc1cc(NC(=O)C2CC2)c(Cl)cc1C(=O)N[C@H]1CCN(C2CCCCC2)C1	1.4	2.1	4.4	–	–	–
COc1cc(NC(=O)C2CC2)c(Cl)cc1C(=O)N[C@H]1CCN(CC2CCCCC2)C1	–	3.3	3.7	–	–	–
COc1cc(NC(=O)C2CC2)c(Cl)cc1C(=O)N[C@H]1CCNC1	> 30	2200	3000	–	–	–
CN1CCN(C2=Nc3cc(Cl)ccc3Nc3ccccc32)CC1 [CLOZAPINE]	–	–	–	–	6.8	–
O=C(CCCN1CCC(O)(c2ccc(Cl)cc2)CC1)c1ccc(F)cc1 [HALOPERIDOL]	–	–	–	–	0.041	> 10000
CNc1cc(OC)c(C(=O)N[C@H]2CCN(Cc3ccccc3)[C@H]2C)cc1Cl [NEMONAPRIDE]	0.012	–	–	–	–	–
